ChEMBL document CHEMBL5543145, “Discovery of the First-in-Class G9a/GLP PROTAC Degrader” (J Med Chem, 2024)
pIC50: −log10 of the molar value. Calls of active or inactive are those of the source. The rule behind the calls is not given here.

How the values were obtained:
[1] = target: T1, von Hippel-Lindau disease tumor suppressor/Histone-lysine N-methyltransferase EHMT1 (Homo sapiens, UniProt Q9H9B1+P40337); test: PROTAC activity at GLP/VHL in human 22Rv1 cells assessed as induction of GLP degradation at 3 uM incubated for 24 hrs by Western blot analysis relative to control; type: cell-based
[2] = target: T1, von Hippel-Lindau disease tumor suppressor/Histone-lysine N-methyltransferase EHMT1; test: PROTAC activity at GLP/VHL in human 22Rv1 cells assessed as induction of GLP degradation at 0.3 uM incubated for 24 hrs by Western blot analysis relative to control; type: cell-based
[3] = target: T2, von Hippel-Lindau disease tumor suppressor/Histone-lysine N-methyltransferase EHMT2 (Homo sapiens, UniProt Q96KQ7+P40337); test: PROTAC activity at G9a/VHL in human 22Rv1 cells assessed as induction of G9a degradation at 3 uM incubated for 24 hrs by Western blot analysis relative to control; type: cell-based
CWR22R = test: Cytotoxicity against human 22Rv1 cells assessed as growth inhibition measured for 7 days; type: functional; conditions: 22Rv1, 168 h, time 7 day
K562 [4] = test: Cytotoxicity against human K562 cells assessed as reduction in cell viability incubated for 8 days; type: functional, cell-based; conditions: K562, 192 h
[5] = target: T1, von Hippel-Lindau disease tumor suppressor/Histone-lysine N-methyltransferase EHMT1; test: PROTAC activity at GLP/VHL in human 22Rv1 cells assessed as induction of GLP degradation at 1 uM incubated for 24 hrs by Western blot analysis; type: cell-based
NCI-H1299 = test: Cytotoxicity against human NCI-H1299 cells assessed as growth inhibition incubated for 8 days; type: functional; conditions: NCI-H1299, 192 h, time 8 day
[6] = target: T1, von Hippel-Lindau disease tumor suppressor/Histone-lysine N-methyltransferase EHMT1; test: PROTAC activity at GLP/VHL in human 22Rv1 cells assessed as effect on VHL level at 3 uM incubated for 24 hrs by RT-qPCR analysis; type: cell-based
K562 [7] = test: Cytotoxicity against human K562 cells assessed as growth inhibition incubated for 7 days; type: functional; conditions: time 7.0 day
[8] = target: T2, von Hippel-Lindau disease tumor suppressor/Histone-lysine N-methyltransferase EHMT2; test: PROTAC activity at G9a/VHL in human 22Rv1 cells assessed as induction of G9a degradation at 0.3 uM incubated for 24 hrs by Western blot analysis relative to control; type: cell-based
[9] = target: T2, von Hippel-Lindau disease tumor suppressor/Histone-lysine N-methyltransferase EHMT2; test: PROTAC activity at G9a/VHL in human 22Rv1 cells assessed as effect on G9a level upto 3 uM measured for 24 hrs by Western blot analysis; type: cell-based
[10] = target: T1, von Hippel-Lindau disease tumor suppressor/Histone-lysine N-methyltransferase EHMT1; test: PROTAC activity at GLP/VHL in human 22Rv1 cells assessed as effect on GLP level upto 3 uM measured for 24 hrs by Western blot analysis; type: cell-based

T1 sequence (P40337 whole entry partner): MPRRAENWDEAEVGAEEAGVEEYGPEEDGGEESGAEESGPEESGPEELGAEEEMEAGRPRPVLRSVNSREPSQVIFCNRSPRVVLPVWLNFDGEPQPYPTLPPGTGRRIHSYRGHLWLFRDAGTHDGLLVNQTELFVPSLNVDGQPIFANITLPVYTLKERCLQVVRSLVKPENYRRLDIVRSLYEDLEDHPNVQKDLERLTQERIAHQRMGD
T1 sequence (Q9H9B1 2-1298 limits assumed): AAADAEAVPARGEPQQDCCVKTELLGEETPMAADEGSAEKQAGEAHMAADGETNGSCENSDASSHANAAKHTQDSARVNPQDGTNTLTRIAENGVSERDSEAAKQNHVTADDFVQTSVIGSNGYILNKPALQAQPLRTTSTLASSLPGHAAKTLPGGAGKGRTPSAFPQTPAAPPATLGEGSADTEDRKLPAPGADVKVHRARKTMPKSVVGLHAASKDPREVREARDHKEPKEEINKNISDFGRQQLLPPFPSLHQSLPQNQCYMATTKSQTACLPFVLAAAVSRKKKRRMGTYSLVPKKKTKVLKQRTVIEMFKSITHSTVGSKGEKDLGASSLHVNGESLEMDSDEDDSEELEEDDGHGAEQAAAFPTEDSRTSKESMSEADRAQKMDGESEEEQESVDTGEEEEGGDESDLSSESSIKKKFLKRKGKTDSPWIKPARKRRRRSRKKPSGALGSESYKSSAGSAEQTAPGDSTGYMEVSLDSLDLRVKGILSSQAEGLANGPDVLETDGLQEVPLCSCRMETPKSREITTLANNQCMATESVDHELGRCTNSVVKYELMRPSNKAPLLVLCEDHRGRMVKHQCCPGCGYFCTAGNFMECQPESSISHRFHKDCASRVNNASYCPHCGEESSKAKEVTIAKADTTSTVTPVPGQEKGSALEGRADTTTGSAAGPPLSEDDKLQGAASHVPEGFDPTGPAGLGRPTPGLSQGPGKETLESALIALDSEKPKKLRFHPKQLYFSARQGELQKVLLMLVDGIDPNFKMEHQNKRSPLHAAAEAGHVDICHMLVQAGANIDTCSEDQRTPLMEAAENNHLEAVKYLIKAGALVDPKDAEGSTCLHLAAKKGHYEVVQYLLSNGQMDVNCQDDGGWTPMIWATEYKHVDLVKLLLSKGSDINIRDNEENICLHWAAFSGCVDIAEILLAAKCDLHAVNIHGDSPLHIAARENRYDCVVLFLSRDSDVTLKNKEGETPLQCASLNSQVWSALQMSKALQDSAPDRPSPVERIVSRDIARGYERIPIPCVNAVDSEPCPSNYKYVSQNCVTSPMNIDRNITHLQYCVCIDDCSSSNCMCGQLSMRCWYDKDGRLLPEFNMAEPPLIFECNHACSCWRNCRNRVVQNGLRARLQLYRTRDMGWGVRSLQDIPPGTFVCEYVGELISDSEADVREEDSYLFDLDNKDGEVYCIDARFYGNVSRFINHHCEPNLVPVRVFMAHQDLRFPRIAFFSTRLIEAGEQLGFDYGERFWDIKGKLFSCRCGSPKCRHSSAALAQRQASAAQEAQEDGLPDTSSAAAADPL
T2 sequence (P40337 whole entry partner): as the sequence (P40337 whole entry partner) above
T2 sequence (Q96KQ7 2-1210 limits assumed): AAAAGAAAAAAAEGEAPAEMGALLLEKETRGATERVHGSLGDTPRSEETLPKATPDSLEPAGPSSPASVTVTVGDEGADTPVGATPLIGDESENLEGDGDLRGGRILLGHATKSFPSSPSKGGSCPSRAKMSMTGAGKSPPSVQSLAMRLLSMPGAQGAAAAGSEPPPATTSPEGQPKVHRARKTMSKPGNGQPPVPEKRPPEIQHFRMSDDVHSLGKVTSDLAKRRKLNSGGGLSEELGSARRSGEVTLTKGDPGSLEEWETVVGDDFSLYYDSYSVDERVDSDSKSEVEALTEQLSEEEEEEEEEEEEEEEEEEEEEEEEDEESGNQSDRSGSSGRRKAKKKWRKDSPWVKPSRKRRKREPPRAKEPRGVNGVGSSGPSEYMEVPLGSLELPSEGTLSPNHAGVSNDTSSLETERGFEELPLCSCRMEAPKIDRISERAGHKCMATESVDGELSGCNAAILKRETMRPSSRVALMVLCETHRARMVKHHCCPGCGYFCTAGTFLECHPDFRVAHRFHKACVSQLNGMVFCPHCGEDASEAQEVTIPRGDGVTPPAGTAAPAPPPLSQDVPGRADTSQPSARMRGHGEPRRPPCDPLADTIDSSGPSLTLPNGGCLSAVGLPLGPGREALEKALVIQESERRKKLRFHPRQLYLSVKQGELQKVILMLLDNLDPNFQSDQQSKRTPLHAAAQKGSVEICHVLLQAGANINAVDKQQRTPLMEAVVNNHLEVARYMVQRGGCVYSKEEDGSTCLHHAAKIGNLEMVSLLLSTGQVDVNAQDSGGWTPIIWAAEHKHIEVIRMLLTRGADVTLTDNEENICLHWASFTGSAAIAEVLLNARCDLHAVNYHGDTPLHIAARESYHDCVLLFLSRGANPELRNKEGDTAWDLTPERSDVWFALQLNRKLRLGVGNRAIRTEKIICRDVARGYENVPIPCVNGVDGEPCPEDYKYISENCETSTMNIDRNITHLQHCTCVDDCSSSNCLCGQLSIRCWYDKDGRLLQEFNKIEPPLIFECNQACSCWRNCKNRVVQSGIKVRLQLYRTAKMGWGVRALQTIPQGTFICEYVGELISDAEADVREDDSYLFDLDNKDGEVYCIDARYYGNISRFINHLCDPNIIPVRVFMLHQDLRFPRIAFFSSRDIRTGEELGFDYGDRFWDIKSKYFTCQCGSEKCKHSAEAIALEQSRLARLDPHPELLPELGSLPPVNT

SMILES | Emax [1] | Emax [2] | Emax [3] | Emax [8] | also measured
COc1cc2c(NC3CCN(CCCC(=O)NCCCCC(=O)N[C@H](C(=O)N4C[C@H](O)C[C@H]4C(=O)NCc4ccc(-c5scnc5C)cc4)C(C)(C)C)CC3)nc(N3CCC(F)(F)CC3)nc2cc1OCCCN1CCCC1 | < 11% | < 9% | < 11% | – | –
COc1cc2c(NC3CCN(C(C)C)CC3)nc(N3CCC(F)(F)CC3)nc2cc1OCCCN1CCCC1 | – | – | – | – | GI50 (CWR22R): > 10 µM; pIC50 (K562 [4]): < 5.00; Activity [5]: inactive; GI50 (NCI-H1299): > 10 µM; Activity [6]: Active; Activity (K562 [7]): inactive
COc1cc2c(NN3CCN(CCCC(=O)NCCCCCCCCC(=O)N[C@H](C(=O)N4C[C@H](O)C[C@H]4C(=O)NCc4ccc(-c5scnc5C)cc4)C(C)(C)C)CC3)nc(N3CCC(F)(F)CC3)nc2cc1OCCCN1CCCC1 | 86% | < 27% | 87% | – | –
COc1cc2c(NC3CCN(CCCC(=O)NCCC(=O)N[C@H](C(=O)N4C[C@H](O)C[C@H]4C(=O)NCc4ccc(-c5scnc5C)cc4)C(C)(C)C)CC3)nc(N3CCC(F)(F)CC3)nc2cc1OCCCN1CCCC1 | 70% | 54% | 61% | 66% | –
COc1cc2c(NC3CCN(CCCC(=O)NCCCCCCCCCCC(=O)N[C@H](C(=O)N4C[C@H](O)C[C@H]4C(=O)NCc4ccc(-c5scnc5C)cc4)C(C)(C)C)CC3)nc(N3CCC(F)(F)CC3)nc2cc1OCCCN1CCCC1 | < 94% | 69% | < 92% | 79% | –
COc1cc2c(NC3CCN(CCCC(=O)NCCCCCC(=O)N[C@H](C(=O)N4C[C@H](O)C[C@H]4C(=O)NCc4ccc(-c5scnc5C)cc4)C(C)(C)C)CC3)nc(N3CCC(F)(F)CC3)nc2cc1OCCCN1CCCC1 | < 19% | < 5% | < 30% | – | –
COc1cc2c(NC3CCN(CCCC(=O)NCCCCCCC(=O)N[C@H](C(=O)N4C[C@H](O)C[C@H]4C(=O)NCc4ccc(-c5scnc5C)cc4)C(C)(C)C)CC3)nc(N3CCC(F)(F)CC3)nc2cc1OCCCN1CCCC1 | < 20% | < 7% | < 30% | < 10% | –
COc1cc2c(NC3CCN(CCCC(=O)NCCCCCCCCCCCC(=O)N[C@H](C(=O)N4C[C@@H](O)C[C@@H]4C(=O)NCc4ccc(-c5scnc5C)cc4)C(C)(C)C)CC3)nc(N3CCC(F)(F)CC3)nc2cc1OCCCN1CCCC1 | – | – | – | – | Activity [9]: inactive; Activity [10]: inactive

Second part, led by results:

Emax [1] | Emax [2] | Emax [3] | Emax [8] | SMILES | also measured
88% | < 10% | – | – | COc1cc2c(NC3CCN(CCCC(=O)NCCOCCC(=O)N[C@H](C(=O)N4C[C@H](O)C[C@H]4C(=O)NCc4ccc(-c5scnc5C)cc4)C(C)(C)C)CC3)nc(N3CCC(F)(F)CC3)nc2cc1OCCCN1CCCC1 | –
< 27% | < 16% | – | – | COc1cc2c(NC3CCN(CCCC(=O)NCCOCCOCCOCCC(=O)N[C@H](C(=O)N4C[C@H](O)C[C@H]4C(=O)NCc4ccc(-c5scnc5C)cc4)C(C)(C)C)CC3)nc(N3CCC(F)(F)CC3)nc2cc1OCCCN1CCCC1 | –
21% | < 7% | < 13% | – | COc1cc2c(NC3CCN(CCCC(=O)NCCOCCOCCC(=O)N[C@H](C(=O)N4C[C@H](O)C[C@H]4C(=O)NCc4ccc(-c5scnc5C)cc4)C(C)(C)C)CC3)nc(N3CCC(F)(F)CC3)nc2cc1OCCCN1CCCC1 | –
68% | < 28% | 75% | – | COc1cc2c(NC3CCN(CCCC(=O)NCCCCCCCC(=O)N[C@H](C(=O)N4C[C@H](O)C[C@H]4C(=O)NCc4ccc(-c5scnc5C)cc4)C(C)(C)C)CC3)nc(N3CCC(F)(F)CC3)nc2cc1OCCCN1CCCC1 | –
21% | < 3% | – | < 8% | COc1cc2c(NC3CCN(CCCC(=O)NCCCC(=O)N[C@H](C(=O)N4C[C@H](O)C[C@H]4C(=O)NCc4ccc(-c5scnc5C)cc4)C(C)(C)C)CC3)nc(N3CCC(F)(F)CC3)nc2cc1OCCCN1CCCC1 | –
< 96% | 84% | < 92% | 67% | COc1cc2c(NC3CCN(CCCC(=O)NCCCCCCCCCC(=O)N[C@H](C(=O)N4C[C@H](O)C[C@H]4C(=O)NCc4ccc(-c5scnc5C)cc4)C(C)(C)C)CC3)nc(N3CCC(F)(F)CC3)nc2cc1OCCCN1CCCC1 | –
